These results are taken from patent US7109216B2 (priority 2001, dated 2006).

Data set [1] has as its target T1, human cannabinoid CB1 receptor (Homo sapiens, UniProt P21554). Briefly: biochemical. The class given is binding. More on the design: expressed in transfected cells; host or cells: Chinese hamster ovary (CHO) cells, membrane preparation. As to conditions: [3H]CP-55,940 radioligand, CHO cell membranes stably transfected with human CB1. The procedure: After incubation of a freshly prepared cell membrane preparation with the [^3H]-ligand, with or without addition of compounds of the invention, separation of bound and free ligand was performed by filtration over glassfiber filters. Radioactivity on the filter was measured by liquid scintillation counting.

The target of data set [2] is T1, human cannabinoid CB1 receptor. Nature of the data set: Cannabinoid CB1 antagonistic activity, forskolin-induced cAMP accumulation in CHO cells. Type of data set: cell-based. More on the design: expressed in transfected cells; host or cells: CHO cells. The protocol:
The cannabinoid CB1 antagonistic activity of compounds of the invention was determined by functional studies using CHO cells in which human cannabinoid CB1 receptors were stably expressed. Adenylyl cyclase was stimulated using forskolin and measured by quantifying the amount of accumulated cyclic AMP. Concomitant activation of CB1 receptors by CB1 receptor agonists (e.g. CP-55,940 or (R)-WIN-55,212–2) can attenuate the forskolin-induced accumulation of cAMP in a concentration-dependent manner. This CB1 receptor-mediated response can be antagonized by CB1 receptor antagonists such as the compounds of the invention.
Background: Cyclic AMP is a second messenger, typically raised through Gs and lowered through Gi signalling.

Where [3] appears, read: antagonism of CB1 agonist (e.g. CP-55,940 or (R)-WIN-55,212-2) effect on forskolin-induced cAMP accumulation, CHO cells expressing human CB1, read-out: hCB1 pA2 (converted).
[4] abbreviates: antagonism of CB1 agonist (e.g. CP-55,940 or (R)-WIN-55,212-2) effect on forskolin-induced cAMP accumulation, CHO cells expressing human CB1.

The structures appear in SMILES notation. Read-outs that look alike come from different tables or passages of the source. A value given as a limit tells only on which side of the number the result lay.

T1 sequence (P21554 whole entry): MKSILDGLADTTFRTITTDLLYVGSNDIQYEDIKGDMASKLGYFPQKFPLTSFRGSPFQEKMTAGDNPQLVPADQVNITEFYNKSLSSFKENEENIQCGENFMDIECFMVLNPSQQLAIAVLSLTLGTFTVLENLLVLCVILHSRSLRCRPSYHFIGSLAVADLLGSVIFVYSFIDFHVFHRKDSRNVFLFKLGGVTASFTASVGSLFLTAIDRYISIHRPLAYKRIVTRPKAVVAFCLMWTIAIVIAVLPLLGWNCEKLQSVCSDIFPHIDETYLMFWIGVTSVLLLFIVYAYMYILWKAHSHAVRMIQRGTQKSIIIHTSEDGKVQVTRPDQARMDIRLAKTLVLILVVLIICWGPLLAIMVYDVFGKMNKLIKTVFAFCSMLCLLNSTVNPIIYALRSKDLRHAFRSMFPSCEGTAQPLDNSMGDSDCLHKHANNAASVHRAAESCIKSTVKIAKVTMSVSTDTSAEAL

For the compound `CN(Cc1ccccc1)C(=O)c1cn(-c2ccc(Cl)cc2)c(-c2ccc(Cl)cc2Cl)n1` [Example 6, N-(Benzyl)-1-(4-chlorophenyl)-2-(2,4-dichlorophenyl)-N-methyl-1H-imidazole-4-carboxamide], the Ki in data set [1] (hCB1 pKi) was 0.0631 µM. The Kb in data set [2] (setting [3]) is 0.0501 µM.

In data set [1] (hCB1 pKi), `Cc1c(C(=O)NN2CCCCC2)nc(-c2ccc(Cl)cc2)n1-c1ccc(Cl)cc1Cl` [Example 10, 2-(4-chlorophenyl)-1-(2,4-dichlorophenyl)-5-methyl-N-(piperidin-1-yl)-1H-imidazole-4-carboxamide] had a Ki of 0.316 µM. The Kb in data set [2] (setting [3]) was 0.00794 µM.

`Cc1c(C(=O)NN2CCCCC2)nc(-c2ccc(Cl)cc2Cl)n1-c1ccc(Cl)cc1` [Example 12, 1-(4-Chlorophenyl)-2-(2,4-dichlorophenyl)-5-methyl-N-(piperidin-1-yl)-1H-imidazole-4-carboxamide] gave a Ki in data set [1] (hCB1 pKi) of 0.0126 µM. Further, the Kb in data set [2] (setting [3]) is 0.00126 µM.

Compound `Cc1c(C(=O)NOC(C)(C)C)nc(-c2ccc(Cl)cc2Cl)n1-c1ccc(Cl)cc1` [Example 13, N-(t-Butoxy)-2-(2,4-dichlorophenyl)-1-(4-chlorophenyl)-5-methyl-1H-imidazole-4-carboxamide] showed a Ki in data set [1] (hCB1 pKi) of 0.0794 µM. Also, the Kb in data set [2] (setting [3]) was 0.00316 µM.

`CCc1c(C(=O)NOC(C)(C)C)nc(-c2ccc(Cl)cc2Cl)n1-c1ccc(Cl)cc1` [Example 14, N-(t-Butoxy)-1-(4-chlorophenyl)-2-(2,4-dichlorophenyl)-5-ethyl-1H-imidazole-4-carboxamide] had a Ki in data set [1] (hCB1 pKi) of 0.1 µM. In data set [2] (setting [3]), the Kb is 0.000126 µM.

For `CCc1c(C(=O)NN2CCCCC2)nc(-c2ccc(Cl)cc2Cl)n1-c1ccc(Cl)cc1` [Example 15, 1-(4-Chlorophenyl)-2-(2,4-dichlorophenyl)-5-ethyl-N-(piperidin-1-yl)-1H-imidazole-4-carboxamide], the Ki in data set [1] (hCB1 pKi) is 0.01 µM. The Kb in data set [2] (setting [3]) is 0.000501 µM.

On to `Cc1c(C(=O)NN2CCCCC2)nc(-c2ccc(Cl)cc2Cl)n1-c1ccc(Br)cc1` [Example 17, 1-(4-Bromophenyl)-2-(2,4-dichlorophenyl)-5-methyl-N-(piperidin-1-yl)-1H-imidazole-4-carboxamide], for which the melting point is more than 204 °C. This compound gave a Ki in data set [1] (hCB1 pKi) of 0.0501 µM. In addition, in data set [2] (setting [3]), the Kb was 0.00158 µM.

On to `CCc1c(C(=O)NN2CCCCC2)nc(-c2ccc(Cl)cc2Cl)n1-c1ccc(Br)cc1` [Example 19, 1-(4-Bromophenyl)-2-(2,4-dichlorophenyl)-5-ethyl-N-(piperidin-1-yl)-1H-imidazole-4-carboxamide], for which the melting point was more than 140 °C. For the same compound, in data set [1] (hCB1 pKi), the Ki was 0.0316 µM. For the same compound, the Kb in data set [2] (setting [3]) is 0.00126 µM.

Consider `CCc1c(C(=O)NC2CCCCC2)nc(-c2ccc(Cl)cc2Cl)n1-c1ccc(Br)cc1` [Example 20, 1-(4-Bromophenyl)-N-cyclohexyl-2-(2,4-dichlorophenyl)-5-ethyl-1H-imidazole-4-carboxamide], for which the melting point is more than 135 °C. The compound also had a Ki in data set [1] (hCB1 pKi) of 0.1 µM. For the same compound, the Kb in data set [2] (setting [3]) was less than 0.001 µM.

Compound `CCCCCNC(=O)c1nc(-c2ccc(Cl)cc2Cl)n(-c2ccc(Br)cc2)c1CC` [Example 21, 1-(4-Bromophenyl)-2-(2,4-dichlorophenyl)-5-ethyl-N-(n-pentyl)-1H-imidazole-4-carboxamide] had a Ki in data set [1] (hCB1 pKi) of 0.0316 µM. Also, the Kb in data set [2] (setting [3]) was less than 0.001 µM.

Regarding `O=C(NN1CCCCC1)c1cn(-c2ccc(Br)cc2)c(-c2ccc(Cl)cc2Cl)n1` [Example 22, 1-(4-bromophenyl)-2-(2,4-dichlorophenyl)-N-(piperidin-1-yl)-1H-imidazole-4-carboxamide], the Ki in data set [1] (read-out: hCB1 pKi (converted)) was 0.398 µM. Besides, the Kb in data set [2] is 0.01 µM.

In the case of `CC(C)(C)ONC(=O)c1cn(-c2ccc(Br)cc2)c(-c2ccc(Cl)cc2Cl)n1` [Example 23, N-(t-Butoxy)-1-(4-bromophenyl)-2-(2,4-dichlorophenyl)-1H-imidazole-4-carboxamide], the Ki in data set [1] (read-out: hCB1 pKi (converted)) is 0.398 µM. For the same compound, the Kb in data set [2] is 0.001 µM.

`O=C(NN1CCCCCC1)c1cn(-c2ccc(Br)cc2)c(-c2ccc(Cl)cc2Cl)n1` [Example 25, N-(Azepan-1-yl)-1-(4-bromophenyl)-2-(2,4-dichlorophenyl)-1H-imidazole-4-carboxamide] registered a melting point of 201 to 204 °C. Moreover, the Ki in data set [1] (read-out: hCB1 pKi (converted)) was 0.126 µM. The compound further gave a Kb in data set [2] of 0.01 µM.

Compound `O=C(NN1CC2CCCC2C1)c1cn(-c2ccc(Cl)cc2)c(-c2ccc(Cl)cc2Cl)n1` (stereo not drawn) [Example 26, 1-(4-Chlorophenyl)-2-(2,4-dichlorophenyl)-N-(hexahydrocyclopenta[c]pyrrol-2(1H)-yl)-1H-imidazole-4-carboxamide] gave a Ki in data set [1] (hCB1 pKi) of 0.501 µM. Also, in data set [2] (setting [3]), the Kb was 0.01 µM.

`O=C(NCc1ccc(F)cc1)c1cn(-c2ccc(Cl)cc2)c(-c2ccc(Cl)cc2Cl)n1` [Example 27, 1-(4-Chlorophenyl)-2-(2,4-dichlorophenyl)-N-(4-fluorobenzyl)-1H-imidazole-4-carboxamide]: in data set [1] (hCB1 pKi), the Ki is 0.0631 µM. Moreover, the Kb in data set [2] (setting [3]) was 0.00398 µM.

Take `COc1cc(Cl)ccc1-c1nc(C(=O)NC2CCCCC2)cn1-c1ccc(Cl)cc1` [Example 29, 1-(4-Chlorophenyl)-N-cyclohexyl-2-(2-methoxy-4-chlorophenyl)-1H-imidazole-4-carboxamide]: the melting point was in the range of 177 to 179 °C. Besides, the Ki in data set [1] (read-out: hCB1 pKi (converted)) is 0.398 µM. In data set [2], this compound showed a Kb of 0.1 µM.

Regarding `COc1ccc(-n2cc(C(=O)NC3CCCCC3)nc2-c2ccc(Cl)cc2Cl)cc1` [Example 36, N-Cyclohexyl-2-(2,4-dichlorophenyl)-1-(4-methoxyphenyl)-1H-imidazole-4-carboxamide], the melting point was in the range of 175 to 176 °C. Moreover, the Ki in data set [1] (hCB1 pKi) is 0.158 µM. The Kb in data set [2] (setting [3]) was 0.00631 µM.

Take `O=C(NC1CCCCC1)c1cn(-c2ccc(Cl)cc2)c(-c2ccc(Cl)cc2C(F)(F)F)n1` [Example 38, 1-(4-Chlorophenyl)-N-cyclohexyl-2-(2-trifluoromethyl-4-chlorophenyl)-1H-imidazole-4-carboxamide]: the melting point was determined as 172 °C. Moreover, in data set [1] (read-out: hCB1 pKi (converted)), the Ki is 0.2 µM. For the same compound, the Kb in data set [2] was 0.02 µM.

Turning to `O=C(NN1CCCCC1)c1cn(-c2ccc(Cl)cc2)c(-c2ccc(Cl)cc2C(F)(F)F)n1` [Example 39, 1-(4-Chlorophenyl)-N-(piperidin-1-yl)-2-(2-trifluoromethyl-4-chlorophenyl)-1H-imidazole-4-carboxamide], the melting point amounted to 219 °C. The Ki in data set [1] (read-out: hCB1 pKi (converted)) is 0.316 µM. This compound also had a Kb in data set [2] of 0.0501 µM.

Compound `Cc1c(C(=O)NN2CCCCC2)nc(-c2ccc(Cl)cc2Cl)n1-c1ccc(C(F)(F)F)cc1` [Example 45, 2-(2,4-dichlorophenyl)-5-methyl-N-(piperidin-1-yl)-1-(4-(trifluoromethyl)phenyl)-1H-imidazole-4-carboxamide] gave a Ki in data set [1] (hCB1 pKi) of 0.0158 µM. Moreover, the Kb in data set [2] (setting [3]) is 0.00158 µM.

With `O=C(NN1CCCCC1)c1cn(-c2ccc(C(F)(F)F)cc2)c(-c2ccc(Cl)cc2Cl)n1` [Example 46, 2-(2,4-dichlorophenyl)-N-(piperidin-1-yl)-1-(4-(trifluoromethyl)phenyl)-1H-imidazole-4-carboxamide], the melting point is > 200 °C (dec.). Besides, the Ki in data set [1] (hCB1 pKi) was 0.0501 µM. In addition, the Kb in data set [2] (setting [3]) is 0.00631 µM.

`O=C(NC1CCCCC1)c1cn(-c2ccc(C(F)(F)F)cc2)c(-c2ccc(Cl)cc2Cl)n1` [Example 48, N-Cyclohexyl-2-(2,4-dichlorophenyl)-1-(4-(trifluoromethyl)phenyl)-1H-imidazole-4-carboxamide] showed a melting point of 199 to 200 °C. Moreover, the Ki in data set [1] (read-out: hCB1 pKi (converted)) was 0.316 µM. In data set [2], this compound showed a Kb of 0.000251 µM.

Regarding `Cc1c(C(=O)NN2CCOCC2)nc(-c2ccc(Cl)cc2Cl)n1-c1ccc(Cl)cn1` [Example 52, 1-(5-Chloropyridin-2-yl)-2-(2,4-dichlorophenyl)-5-methyl-N-(4-morpholinyl)-1H-imidazole-4-carboxamide], the Ki in data set [1] (read-out: hCB1 pKi (converted)) was 0.501 µM. This compound also showed a Kb in data set [2] of 0.00251 µM.

Regarding `Cc1c(C(=O)NN2CCCCC2)nc(-c2ccc(Cl)cc2Cl)n1-c1ccc(F)cc1` [Example 62, 2-(2,4-Dichlorophenyl)-1-(4-fluorophenyl)-5-methyl-N-(piperidin-1-yl)-1H-imidazole-4-carboxamide], the melting point was in the range of 223 to 224 °C. For the same compound, the Ki in data set [1] (hCB1 pKi) was 0.0316 µM. For the same compound, the “hCB1 pA2” value in data set [2] (setting [4]) worked out at 7.7.

In turn, `O=C(NN1CCCCC1)c1nc(-c2ccc(Cl)cc2Cl)n(-c2ccc(Br)cc2)c1Cl` [Example 109, 1-(4-bromophenyl)-5-chloro-2-(2,4-dichloro-phenyl)-N-(piperidin-1-yl)-1H-imidazole-4-carboxamide] gave a Ki in data set [1] (hCB1 pKi) of 0.251 µM. Further, the Kb in data set [2] (setting [3]) was 0.00158 µM.

The compound `N#Cc1c(C(=O)NN2CCCCC2)nc(-c2ccc(Cl)cc2Cl)n1-c1ccc(Cl)cc1` [Example 110, 1-(4-chlorophenyl)-5-cyano-2-(2,4-dichlorophenyl)-N-(piperidin-1-yl)-1H-imidazole-4-carboxamide] showed a Ki in data set [1] (hCB1 pKi) of 0.0316 µM. In addition, the “hCB1 pA2” value in data set [2] (setting [4]) was 8.6.

The term melting point denotes the temperature, or range, at which the solid turns liquid.
